Reference: patent US20060074101A1, “Method of treating post operative nausea and vomiting” (Helsinn Healthcare SA, priority 2003, published 2006)
Counter-ions that a name gives are not always drawn. Like-named read-outs stand apart in the source and are kept apart here.

Columns and labels:
[1] = in vivo, cited from earlier work
PONV = details: Scuderi et al. (2002); cited from earlier work
[2] = test system: postoperative vomiting and nausea (PONV); assay: Oral administration of palonosetron for prophylaxis of PONV (elective laparoscopic surgery patients); assay type: in vivo, human; details: for % no EE / % with CR: 4 hours after recovery; for % no EE / % with CR / % no EE (no emetic episodes) / % with CC (complete control) / % with CR (complete response): evaluable patients; for % no EE (no emetic episodes) / % with CC (complete control) / % with CR (complete response): 24 hours after recovery; for Nausea Mean Score / No Nausea (patients) / Severe Nausea (patients): during 24 hours after recovery; for patients free from emetic episodes: first 4 hours of recovery
Description: A study was performed to test the efficacy, safety, and pharmacokinetics of five doses of orally administered palonosetron for the prophylaxis of postoperative vomiting and nausea. Three hundred fifty-one patients, 308 women and 43 men, 19-75 years of age, scheduled for elective laparoscopic surgical procedures and having an ASA physical status rating of I and II were enrolled in this study. All patients received balanced general anesthesia, including […] plus an opiate. Doses of palonosetron were calculated based on thee patient's body weight at the screening visit, rounded to the nearest kilogram. Each dose was diluted to a total volume of 25 mL by adding sterile water to the dosing cup. The dosing cup was rinsed with 25 mL of sterile water and the patient also swallowed this 25 mL. Study medication was administered 2 hours prior to scheduled induction of anesthesia for surgeries requiring nasogastric suction and 1 hour prior to scheduled induction of anesthesia for all other laparoscopic surgical procedures.

[3] = test system: postoperative vomiting and nausea (PONV); assay: Prevention of PONV using a single intravenous dose of palonosetron (hysterectomy patients); assay type: in vivo, human; details: for patients who had received rescue therapy: by 24 hours; for Time to Failure (hr) (median): emesis or rescue medication, whichever first; for patients who experienced one or more emetic episodes: at 12 hours; for patients who had experienced an emetic episode: at 24 hours; for patients who experienced an emetic episode: two hours postrecovery; for Nausea Mean Score / No Nausea (patients) / Severe Nausea (patients): during 24 hours after recovery
Description: A study was conducted to test the efficacy and safety of five doses of intravenously administered palonosetron for the prophylaxis of postoperative vomiting and nausea. A total of 381 women, 24-80 years of age, scheduled for abdominal or vaginal hysterectomy and having ASA physical status rating of I or II were enrolled in this study. All patients received balanced general anesthesia, including N2O plus an opiate. Study medication, palonosetron, was administered over 30 seconds through a peripheral IV line at skin closure at the conclusion of the surgical procedure.

[4] = Stability of palonosetron in solution; assay type: physicochemical; details: dependence on concentration
[5] = 0.1 μg/kg IV, 24 hours after recovery, evaluable patients
[6] = 0.3 μg/kg IV, 4 hours after recovery
[7] = 0.3 μg/kg IV, 24 hours after recovery, evaluable patients
[8] = 1 μg/kg IV, 4 hours after recovery
[9] = 1.0 μg/kg IV, 24 hours after recovery, evaluable patients
[10] = 3.0 μg/kg IV, 24 hours after recovery, evaluable patients
[11] = 30 μg/kg IV, 4 hours after recovery
[12] = 30 μg/kg IV, 24 hours after recovery, evaluable patients

CN1C2CCCC1CC(NC(=O)c1nn(C)c3ccccc13)C2 (stereo not shown) [Kytril, granisetron hydrochloride]
plasma half-life [1]: 1.77 to 17.73 h

O=C(O[C@@H]1C[C@@H]2C[C@H]3C[C@H](C1)N2CC3=O)c1c[nH]c2ccccc12 [dolasetron]
serum half life [1]: approximately 7.5 hours

Cc1nccn1CC1CCc2c(c3ccccc3n2C)C1=O (stereo not shown) [ondansetron]
serum half life [1]: ~5.5 h | serum half life ([1]; listed as Zofran): 5 to 6 h | patients requiring additional therapy after treatment (PONV): 38-50%

Cl.O=C1c2cccc3c2[C@H](CCC3)CN1[C@@H]1CN2CCC1CC2 [palonosetron, (3aS)-2,3,3a,4,5,6-Hexahydro-2-[(S)-1-Azabicyclo[2.2.2]oct-3-yl]2,3,3a,4,5,6-hexahydro-1-oxo-1Hbenz[de]isoquinoline]
% no EE ([2]; 0.1 μg/kg oral): 73% | % with CR ([2]; 0.1 μg/kg oral): 60% | nausea, position of treatment group relative to other groups ([2]; 0.3 μg/kg oral, 24-hour period following recovery): intermediate to the placebo group and the other palonosetron treatment groups | % no EE ([2]; 0.3 μg/kg oral): 72% | % with CR ([2]; 0.3 μg/kg oral): 61% | % no EE (no emetic episodes) ([2]; 0.3 μg/kg oral): 50% | % with CC (complete control) ([2]; 0.3 μg/kg oral): 37% | % with CR (complete response) ([2]; 0.3 μg/kg oral): 37% | Nausea Mean Score ([2]; 0.3 μg/kg oral): 0.83 | No Nausea (patients) ([2]; 0.3 μg/kg oral): 44.8% | Severe Nausea (patients) ([2]; 0.3 μg/kg oral): 3.4% | % no EE ([2]; 1 μg/kg oral): 81% | % with CR ([2]; 1 μg/kg oral): 70% | % no EE (no emetic episodes) ([2]; 1 μg/kg oral): 67% | % with CC (complete control) ([2]; 1 μg/kg oral): 58% | % with CR (complete response) ([2]; 1 μg/kg oral): 58% | Nausea Mean Score ([2]; 1 μg/kg oral): 0.64 | No Nausea (patients) ([2]; 1 μg/kg oral): 52.8% | Severe Nausea (patients) ([2]; 1 μg/kg oral): 3.8% | patients free from emetic episodes ([2]; 1.0 μg/kg oral): 72% | % no EE ([2]; 3 μg/kg oral): 82% | % with CR ([2]; 3 μg/kg oral): 76% | % no EE (no emetic episodes) ([2]; 3 μg/kg oral): 63% | % with CC (complete control) ([2]; 3 μg/kg oral): 52% | % with CR (complete response) ([2]; 3 μg/kg oral): 52% | Nausea Mean Score ([2]; 3 μg/kg oral): 0.65 | No Nausea (patients) ([2]; 3 μg/kg oral): 55.8% | Severe Nausea (patients) ([2]; 3 μg/kg oral): 7.7% | patients free from emetic episodes ([2]; 3 μg/kg oral): 81% | % no EE (no emetic episodes) ([2]; 10 μg/kg oral): 71% | % with CC (complete control) ([2]; 10 μg/kg oral): 57% | % with CR (complete response) ([2]; 10 μg/kg oral): 59% | Nausea Mean Score ([2]; 10 μg/kg oral): 0.71 | No Nausea (patients) ([2]; 10 μg/kg oral): 51.1% | Severe Nausea (patients) ([2]; 10 μg/kg oral): 2.2% | patients free from emetic episodes ([2]; 10 μg/kg oral): 82% | % no EE ([2]; 30 μg/kg oral): 69% | % with CR ([2]; 30 μg/kg oral): 63% | % no EE (no emetic episodes) ([2]; 30 μg/kg oral): 65% | % with CC (complete control) ([2]; 30 μg/kg oral): 51% | % with CR (complete response) ([2]; 30 μg/kg oral): 53% | Nausea Mean Score ([2]; 30 μg/kg oral): 0.79 | No Nausea (patients) ([2]; 30 μg/kg oral): 44.8% | Severe Nausea (patients) ([2]; 30 μg/kg oral): 5.2% | nausea reported versus placebo ([2]; 1, 3, 10, and 30 μg/kg oral, 24-hour period following recovery): statistically significantly less nausea | dose at which clinical response reached a plateau ([2]; orally administered): 1 µg/kg | Duration of Effect: Emetic Episode (25th Percentile) ([3]; 0.1 μg/kg IV): 2.2 h | Duration of Effect: Emetic Episode, second line of values (percentile not given) ([3]; 0.1 μg/kg IV): >24 h | Duration of Effect: Rescue (50th percentile) ([3]; 0.1 μg/kg IV): 8.5 h | % with CR ([3]; 0.1 μg/kg IV, 4 hours after recovery): 57% | % no EE [3, 5]: 55% | % with CC (complete control) [3, 5]: 34% | % with CR (complete response) [3, 5]: 34% | patients who had received rescue therapy ([3]; 0.1 μg/kg IV): 59.6% | Time to Failure (hr) (median) ([3]; 0.1 μg/kg IV): 6.0 h | Duration of Effect: Emetic Episode (25th Percentile) ([3]; 0.3 μg/kg IV): 8.4 h | Duration of Effect: Emetic Episode, second line of values (percentile not given) ([3]; 0.3 μg/kg IV): >24 h | Duration of Effect: Rescue (50th percentile) ([3]; 0.3 μg/kg IV): 9.9 h | % no EE [3, 6]: 90% | % with CR [3, 6]: 72% | % no EE [3, 7]: 60% | % with CC (complete control) [3, 7]: 33% | % with CR (complete response) [3, 7]: 34% | patients who experienced one or more emetic episodes ([3]; 0.3 μg/kg IV): 29.9% | patients who had experienced an emetic episode ([3]; 0.3 μg/kg IV): 40.3% | patients who had received rescue therapy ([3]; 0.3 μg/kg IV): 59.7% | Time to Failure (hr) (median) ([3]; 0.3 μg/kg IV): 9.6 h | patients who experienced an emetic episode ([3]; 0.3 μg/kg IV): 10.4% | Duration of Effect: Emetic Episode (25th Percentile) ([3]; 1 μg/kg IV): 21.8 h | Duration of Effect: Emetic Episode, second line of values (percentile not given) ([3]; 1 μg/kg IV): >24 h | Duration of Effect: Rescue (50th percentile) ([3]; 1 μg/kg IV): 21.3 h | % no EE [3, 8]: 92% | % with CR [3, 8]: 69% | % no EE [3, 9]: 73% | % with CC (complete control) [3, 9]: 44% | % with CR (complete response) [3, 9]: 44% | patients who experienced one or more emetic episodes ([3]; 1 μg/kg IV): 14.5% | patients who had experienced an emetic episode ([3]; 1 μg/kg IV): 27.4% | patients who had received rescue therapy ([3]; 1 μg/kg IV): 51.6% | Nausea Mean Score ([3]; 1 μg/kg IV): 0.82 | No Nausea (patients) ([3]; 1 μg/kg IV): 36.1% | Severe Nausea (patients) ([3]; 1 μg/kg IV): 3.3% | Time to Failure (hr) (median) ([3]; 1.0 μg/kg IV): 19.5 h | patients who experienced an emetic episode ([3]; 1 μg/kg IV): 6.5% | nausea reported versus placebo ([3]; 1 μg/kg, 3 μg/kg, and 30 μg/kg IV, 24-hour period following recovery): statistically significantly less nausea | Duration of Effect: Emetic Episode (25th Percentile) ([3]; 3 μg/kg IV): 4.9 h | Duration of Effect: Emetic Episode, second line of values (percentile not given) ([3]; 3 μg/kg IV): >24 h | Duration of Effect: Rescue (50th percentile) ([3]; 3 μg/kg IV): 8.0 h | % with CR ([3]; 3 μg/kg IV, 4 hours after recovery): 66% | % no EE [3, 10]: 61% | % with CC (complete control) [3, 10]: 30% | % with CR (complete response) [3, 10]: 30% | Nausea Mean Score ([3]; 3 μg/kg IV): 0.92 | No Nausea (patients) ([3]; 3 μg/kg IV): 34.8% | Severe Nausea (patients) ([3]; 3 μg/kg IV): 3.0% | Time to Failure (hr) (median) ([3]; 3.0 μg/kg IV): 7.3 h | Duration of Effect: Emetic Episode (25th Percentile) ([3]; 30 μg/kg IV): >24 h | Duration of Effect: Emetic Episode, second line of values (percentile not given) ([3]; 30 μg/kg IV): >24 h | Duration of Effect: Rescue (50th percentile) ([3]; 30 μg/kg IV): 23.2 h | % no EE [3, 11]: 94% | % with CR [3, 11]: 66% | % no EE [3, 12]: 76% | % with CC (complete control) [3, 12]: 45% | % with CR (complete response) [3, 12]: 45% | patients who experienced one or more emetic episodes ([3]; 30 μg/kg IV): 13.4% | patients who had experienced an emetic episode ([3]; 30 μg/kg IV): 23.9% | patients who had received rescue therapy ([3]; 30 μg/kg IV): 50.7% | Nausea Mean Score ([3]; 30 μg/kg IV): 0.66 | No Nausea (patients) ([3]; 30 μg/kg IV): 47.8% | Time to Failure (hr) (median) ([3]; 30 μg/kg IV): 15.0 h | patients who experienced an emetic episode ([3]; 30 μg/kg IV): 4.5% | patients free from emetic episodes ([3]; 0.3-, 1-, and 30-μg/kg IV groups (range), first 4 hours of recovery): 90-94% | dose at which the clinical response substantially plateaus ([3]; administered intravenously or orally): about 1 microgram/kilogram of body weight | patients who received rescue medication ([3]; palonosetron-treated patients IV (range over dose groups), at 8 hours): 35.5-50.7% | patients who received rescue therapy ([3]; palonosetron-treated patients IV (range over dose groups), within the first 2 hours): 21-31% | stability in solution [4]: stability of palonosetron increases in solution as its concentration decreases
